Test systems include A549 NSCLC; CCRF-CEM leukemia; IGROV1 ovarian; NCI-H23 lung; NCI/ADR-RES ovarian; RPMI-8226 leukemia; SK-MEL-5 melanoma; SW-620 colon; U251 CNS; UACC-62 melanoma.
Common to all, as to test: DTP human tumour cell line panel, 48 h

Where “and” joins values, the source holds several entries; their conditions need not be identical. Identical values can stand only once.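 Tested at 5 concentrations; 48 h exposure; 96-well plates; endpoints linearly interpolated, else capped at highest concentration. Abbreviation: GI50, concentration required for 50% inhibition of growth. TGI is the concentration that stops growth completely.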

For orientation: GI50 means the concentration giving 50% growth inhibition. One may read the TGI as the concentration at which net growth stops.

In the case of `C/C1=C\C/C=C(\C)[C@H]2CC(CC/C(C)=C/CC1)[C@@](C)(CO)O2`, the GI50 in the experiment with A549 NSCLC is greater than 100 µM; in the experiment on CCRF-CEM leukemia it was 72.8 µM; with IGROV1 ovarian, 16 µM; with NCI-H23 lung, greater than 100 µM; in the experiment on NCI/ADR-RES ovarian, greater than 100 µM; in the experiment on RPMI-8226 leukemia, 40.6 µM. The GI50 in the experiment with SK-MEL-5 melanoma is 87.3 µM; with SW-620 colon, 52.9 µM; in the experiment with U251 CNS it was 84.2 µM; in the experiment with UACC-62 melanoma it was 69.2 µM. Moreover, the TGI with A549 NSCLC is greater than 100 µM; in the experiment on CCRF-CEM leukemia, greater than 100 µM; in the experiment on IGROV1 ovarian, 56.5 µM; in the experiment on NCI-H23 lung, greater than 100 µM; with NCI/ADR-RES ovarian it was greater than 100 µM; in the experiment on RPMI-8226 leukemia, greater than 100 µM. Further, the TGI with SK-MEL-5 melanoma, with SW-620 colon, in the experiment with U251 CNS and in the experiment on UACC-62 melanoma was greater than 100 µM throughout.

`CN(C)CCCNc1ccnc2cc([N+](=O)[O-])ccc12`: the TGI in the experiment on A549 NSCLC was 60.6 µM; with CCRF-CEM leukemia it was greater than 100 µM; in the experiment with IGROV1 ovarian it was 12.8 µM; in the experiment on NCI-H23 lung, 25.4 µM; in the experiment with NCI/ADR-RES ovarian, 50 µM; in the experiment with RPMI-8226 leukemia, greater than 100 µM. Further, the total growth inhibition concentration (TGI) in the experiment on SK-MEL-5 melanoma worked out at 24.1 µM; with SW-620 colon, 30 µM; in the experiment with U251 CNS it was 57.7 µM; in the experiment on UACC-62 melanoma, 33.6 µM.

Take `Nc1ncnc2c(C3OC(CO)C(O)C3O)[nH]nc12` (centres undefined): the TGI in the experiment on A549 NSCLC is 9.43 µM; in the experiment on CCRF-CEM leukemia, 73.9 µM; in the experiment on IGROV1 ovarian, 8.6 µM; in the experiment on NCI-H23 lung it was 10.5 µM and 16.4 µM; with NCI/ADR-RES ovarian it was 2.85 µM and 1.17 µM; with RPMI-8226 leukemia, 3.96 µM. Moreover, the TGI is 10.9 µM and 7.47 µM with SK-MEL-5 melanoma; 3.31 µM and 9.17 µM in the experiment on SW-620 colon; 25.4 µM in the experiment on U251 CNS; 10.7 µM and 10.2 µM in the experiment on UACC-62 melanoma. Besides, the GI50 with CCRF-CEM leukemia is 4.68 µM and 2.77 µM; with NCI-H23 lung, 0.659 µM; in the experiment on NCI/ADR-RES ovarian it was 0.0484 µM; with SK-MEL-5 melanoma it was 0.984 µM; in the experiment on SW-620 colon it was 0.0592 µM; in the experiment with U251 CNS, 1.39 µM.

As to `S=C=NCc1ccccc1`, the TGI in the experiment with A549 NSCLC was 17.9 µM; with CCRF-CEM leukemia it was 2.48 µM; with IGROV1 ovarian, 8.17 µM; in the experiment on NCI-H23 lung it was 15.2 µM; in the experiment with NCI/ADR-RES ovarian, greater than 32 µM; in the experiment on RPMI-8226 leukemia, greater than 100 µM. Moreover, the TGI with SK-MEL-5 melanoma was 7.76 µM; with SW-620 colon it was greater than 37.3 µM; with U251 CNS, 12.2 µM; with UACC-62 melanoma, 14.1 µM.

`CCN(CC)CCCOc1cc(O)c2c(=O)cc(-c3ccccc3)oc2c1`: the GI50 with A549 NSCLC is 5.53 µM; with CCRF-CEM leukemia, 10.4 µM; with IGROV1 ovarian, 6.17 µM; in the experiment with NCI-H23 lung, 11.4 µM; with NCI/ADR-RES ovarian, 13.3 µM; with RPMI-8226 leukemia, 9.71 µM. Further, the GI50 in the experiment with SK-MEL-5 melanoma was 3.16 µM; with SW-620 colon it was 6.27 µM; in the experiment on U251 CNS, 10.6 µM; in the experiment with UACC-62 melanoma, 3.89 µM. Moreover, the TGI in the experiment on A549 NSCLC was 22.5 µM; in the experiment on CCRF-CEM leukemia it was 26.8 µM; with IGROV1 ovarian, 22.1 µM; in the experiment on NCI-H23 lung it was 23.4 µM; in the experiment on NCI/ADR-RES ovarian it was 27.1 µM; in the experiment with RPMI-8226 leukemia, 28.4 µM. Moreover, the TGI in the experiment with SK-MEL-5 melanoma stood at 11.8 µM; in the experiment on SW-620 colon it was 19.3 µM; in the experiment with U251 CNS, 22.4 µM; in the experiment on UACC-62 melanoma it was 12.7 µM.

In the case of `Cc1cc2c3ccccc3ccc2[n+]2ccccc12`, the GI50 is 0.628 µM in the experiment with A549 NSCLC; 4.72 µM in the experiment with CCRF-CEM leukemia; 10 µM in the experiment on IGROV1 ovarian; 2.57 µM with NCI-H23 lung; greater than 100 µM in the experiment with NCI/ADR-RES ovarian; 8.7 µM with RPMI-8226 leukemia. The GI50 was 1.63 µM with SK-MEL-5 melanoma, 2.99 µM with SW-620 colon, 1.06 µM in the experiment with U251 CNS and 6 µM in the experiment on UACC-62 melanoma. Further, the TGI was greater than 76.9 µM in the experiment on A549 NSCLC; 35.2 µM in the experiment on CCRF-CEM leukemia; greater than 86.2 µM in the experiment on IGROV1 ovarian; 19.3 µM in the experiment with NCI-H23 lung; greater than 100 µM in the experiment with NCI/ADR-RES ovarian; 80.3 µM with RPMI-8226 leukemia. Besides, the TGI in the experiment with SK-MEL-5 melanoma came out at 3.78 µM; with SW-620 colon it was 32.8 µM; with U251 CNS it was 10.1 µM; with UACC-62 melanoma, 20.4 µM.

With `CC1(C)CC(=O)c2c(ccc(C(=O)C[C@H](N)CO)c2N)O1`, the GI50 in the experiment on A549 NSCLC was 7 µM and 7.1 µM; in the experiment on IGROV1 ovarian, 3.09 µM; in the experiment with NCI-H23 lung, 6.42 µM and 0.733 µM; with NCI/ADR-RES ovarian, > 17.5 µM and 7.51 µM; in the experiment on RPMI-8226 leukemia it was 4.62 µM; in the experiment on SK-MEL-5 melanoma, 2.87 µM and 5.08 µM. The GI50 in the experiment with SW-620 colon was 0.647 µM and 0.117 µM; in the experiment with U251 CNS it was 1.47 µM and 0.247 µM. Also, the TGI is 17.5 µM and > 33.3 µM with A549 NSCLC; 17.5 µM and > 33.3 µM with CCRF-CEM leukemia; 17.5 µM in the experiment with IGROV1 ovarian; 17.5 µM and > 33.3 µM in the experiment with NCI-H23 lung; greater than 33.3 µM in the experiment with NCI/ADR-RES ovarian; 17.5 µM with RPMI-8226 leukemia. Also, the concentration for total growth inhibition (TGI) in the experiment on SK-MEL-5 melanoma was 17.5 µM and > 33.3 µM; in the experiment on SW-620 colon, 17.5 µM and > 33.3 µM; in the experiment with U251 CNS, 17.5 µM and > 33.3 µM; with UACC-62 melanoma, 10.5 µM and 10.6 µM.

Regarding `N#Cc1cccc(/C=C(/C(=O)c2ccccc2)c2ccccc2)c1`, the GI50 with A549 NSCLC is 10.8 µM; with CCRF-CEM leukemia, 2.56 µM; in the experiment with IGROV1 ovarian it was 4.27 µM; in the experiment on NCI-H23 lung, 3.52 µM; in the experiment with NCI/ADR-RES ovarian, 3.62 µM; with RPMI-8226 leukemia it was 2.82 µM. Also, the GI50 in the experiment with SK-MEL-5 melanoma was 4.04 µM; with SW-620 colon it was 3.28 µM; with U251 CNS it was 3.43 µM; with UACC-62 melanoma it was 4.1 µM. The TGI in the experiment on A549 NSCLC is 47.6 µM; with CCRF-CEM leukemia it was 12.8 µM; with IGROV1 ovarian, 25.3 µM; in the experiment on NCI-H23 lung, 17.1 µM; in the experiment on NCI/ADR-RES ovarian, greater than 100 µM; in the experiment with RPMI-8226 leukemia, 9.27 µM. Also, the TGI with SK-MEL-5 melanoma was 15.6 µM; in the experiment on SW-620 colon, 15.5 µM; with U251 CNS, 12.5 µM; in the experiment on UACC-62 melanoma it was 24.6 µM.

The record behind these values is PubChem BioAssay (NCI).
